The results in this text go back to US20240344241A1, “PROTEINACEOUS MOLECULES AND USES THEREFOR” (THE UNIVERSITY OF QUEENSLAND, priority 2021, published 2024).

Data set [1] concerns the target T1, Human β-FXIIa (Homo sapiens, UniProt P00748).
T1 construct: Human β-FXIIa was obtained from Molecular Innovations, together with human FXa, human FXIa, human α-thrombin, and human plasma kallikrein; purchased Molecular Innovations; host or cells: purified from human plasma
As to the kind of experiment: FXIIa competitive inhibition assay, colorimetric substrate Ac-QRFR-pNA. The data set is classed as biochemical. The method, boiled down: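 Enzyme and substrate levels differ per protease. Inhibitor–enzyme mixtures reach equilibrium at room temperature at pH 8.0 with 10 mM CaCl2 before substrate addition; continuous absorbance (405 nm) or fluorescence (360/460 nm) readout gives Morrison Ki.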

Data set [2] has as its target T2, Human FXa (Homo sapiens, UniProt P00742).
T2 construct: Human β-FXIIa was obtained from Molecular Innovations, together with human FXa, human FXIa, human α-thrombin, and human plasma kallikrein; purchased Molecular Innovations; host or cells: purified from human plasma
The data set is described as follows: FXa inhibition assay. Format: biochemical. The method, then: (§1) The activity of acyclic and cyclic MCoFx1-5 and analogues thereof was assessed in competitive inhibition assays, as previously described in Swedberg et al. (2016) J Med Chem, 59: 7287-7292. Human β-FXIIa was obtained from Molecular Innovations, together with human FXa, human FXIa, human α-thrombin, and human plasma kallikrein. Human cationic trypsin and human plasmin were obtained from Sigma-Aldrich, and recombinant human matriptase was sourced from R&D Systems. Recombinant human urokinase (uPA) and recombinant human tissue plasminogen activator (tPA) were expressed in Expi293 cells, as previously described in Li et al. (2019) Chembiochem, 20: 46-50. FXIIa inhibition assays were performed in clear, low-binding 96-well plates using 250 μL (final volume) of assay buffer (0.1 M Tris-HCl pH 8.0, 0.1 M NaCl, 10 mM CaCl2 and 0.005% Triton X-100). Inhibitors were serially diluted and incubated with 10 nM FXIIa at room temperature to reach equilibrium. After adding 100 μM Ac-QRFR-pNA substrate (KM=162 μM), enzymatic activity was measured by monitoring release of the pNA moiety using a TECAN infinite M1000 Pro plate reader (A=405 nm, reading interval, 10 s; assay time course, 7 min). Assays were conducted in three times in duplicate. Substrate kinetic constants (Michaelis-Menten) and inhibition constants (Morrison K) were determined by non-linear regression using Prism 7 (GraphPad). Selectivity assays with off-target proteases were performed in a similar way, except that different concentrations of enzyme and substrate were used, as indicated in Table 16. For assays using a fluorescent substrate (peptide-4-methylcoumaryl-7-amide, MCA), black low-binding 96-well plates were used and activity was measured using a TECAN infinite M1000 pro plate reader (λex 360 nm, λem 460 nm, reading interval, 30 s; assay time course, 5-30 min).

Data set [3] deals with T3, Rec. human tPA (Homo sapiens, UniProt P00750).
T3 construct: made in house; host or cells: Expi293 cells
T3 sequence (P00750 36-562): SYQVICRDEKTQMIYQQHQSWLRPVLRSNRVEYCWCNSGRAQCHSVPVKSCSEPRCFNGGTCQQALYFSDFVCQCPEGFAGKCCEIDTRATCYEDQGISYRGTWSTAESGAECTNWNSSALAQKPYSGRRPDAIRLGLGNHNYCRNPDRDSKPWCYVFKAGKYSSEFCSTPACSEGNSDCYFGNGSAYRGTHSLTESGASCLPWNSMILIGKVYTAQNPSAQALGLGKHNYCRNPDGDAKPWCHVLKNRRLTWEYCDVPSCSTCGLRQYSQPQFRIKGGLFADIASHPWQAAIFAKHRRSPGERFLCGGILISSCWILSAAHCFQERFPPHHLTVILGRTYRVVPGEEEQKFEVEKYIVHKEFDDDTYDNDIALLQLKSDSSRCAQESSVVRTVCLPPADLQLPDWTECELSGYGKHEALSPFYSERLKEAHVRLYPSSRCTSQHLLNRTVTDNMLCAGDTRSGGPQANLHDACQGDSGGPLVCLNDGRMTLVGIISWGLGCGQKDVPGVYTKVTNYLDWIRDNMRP
As to the kind of experiment: tPA inhibition assay. Format: biochemical. The protocol:
as §1

The target of data set [4] is T4, Rec. human uPA (Homo sapiens, UniProt P00749).
T4 construct: made in house; host or cells: Expi293 cells
As to the kind of experiment: uPA inhibition assay. The data set is classed as biochemical. The method, then:
as §1

Data set [5] addresses T5, Human plasma kallikrein (Homo sapiens, UniProt P03952).
T5 construct: Human β-FXIIa was obtained from Molecular Innovations, together with human FXa, human FXIa, human α-thrombin, and human plasma kallikrein; purchased Molecular Innovations; host or cells: purified from human plasma
As to the kind of experiment: Plasma kallikrein inhibition assay. Format: biochemical. The protocol:
as §1

For data set [6], the system named is clotting via the extrinsic pathway. As to the kind of experiment: Prothrombin time (PT) assay in human plasma. The data set is classed as biochemical. Conditions: at 10 μM. From the text:
(§2) Citrated, platelet-poor plasma samples from healthy adults were collected, prepared, and stored using previously established collection protocols, such as in Zdenek et al. (2019) Toxicol in Vitro, 58: 97-109.
(§3) Standard coagulation assays were used to determine the effect of the inhibitors on the clotting time of human plasma. Activated partial thromboplastin time (aPTT) uses a Kaolin reagent (clay) to activate the intrinsic/contact pathway of the coagulation cascade, whereas prothrombin time (PT) uses Neoplastine (lyophilized thromboplastin prepared from rabbit cerebral tissue) to activate the extrinsic/tissue-factor pathway of the coagulation cascade. A minor adjustment was made to both tests (addition of 25 μL inhibitor or buffer; refer to Table 17) to accommodate the addition of an inhibitor without changing the total volume (and therefore relative ratios of additives) of the assay. Concentrations of inhibitor are reported as the concentration at the point of incubation in the assay, i.e. not taking into account the addition of the start reagent (calcium for aPTT, or Neoplastine for PT).
(§4) Clotting time (seconds) of plasma was automatically measured using a STA-R Max® analyzer (Stago, Asnieres sur Seine, France). Measurements were conducted using a viscosity-based (mechanical) detection system, whereby opposing magnets oscillate a small metal spherical pellet inside the test cuvette (250 μL total volume) until a clot is formed. Dilution of the inhibitor in Owren-Koller (OK) buffer for dose-response curves was performed automatically by the machine. Reagents were kept at 15-19° C. in the machine during experimentation and otherwise stored at 4° C. All tests were performed in triplicate.

Data set [7] deals with T6, Human plasmin (Homo sapiens, UniProt P00747).
T6 construct: Human cationic trypsin and human plasmin were obtained from Sigma-Aldrich, and recombinant human matriptase was sourced from R&D Systems; purchased Sigma-Aldrich; host or cells: purified from human plasma
T6 sequence (P00747 581-810 limits assumed): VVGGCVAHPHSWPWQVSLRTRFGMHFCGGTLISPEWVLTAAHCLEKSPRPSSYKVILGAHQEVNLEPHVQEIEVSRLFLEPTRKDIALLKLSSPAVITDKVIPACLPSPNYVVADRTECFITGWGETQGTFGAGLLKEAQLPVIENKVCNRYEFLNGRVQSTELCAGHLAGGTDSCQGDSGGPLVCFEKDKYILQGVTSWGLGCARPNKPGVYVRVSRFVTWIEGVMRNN
T6 sequence (P00747 97-580 partner limits assumed): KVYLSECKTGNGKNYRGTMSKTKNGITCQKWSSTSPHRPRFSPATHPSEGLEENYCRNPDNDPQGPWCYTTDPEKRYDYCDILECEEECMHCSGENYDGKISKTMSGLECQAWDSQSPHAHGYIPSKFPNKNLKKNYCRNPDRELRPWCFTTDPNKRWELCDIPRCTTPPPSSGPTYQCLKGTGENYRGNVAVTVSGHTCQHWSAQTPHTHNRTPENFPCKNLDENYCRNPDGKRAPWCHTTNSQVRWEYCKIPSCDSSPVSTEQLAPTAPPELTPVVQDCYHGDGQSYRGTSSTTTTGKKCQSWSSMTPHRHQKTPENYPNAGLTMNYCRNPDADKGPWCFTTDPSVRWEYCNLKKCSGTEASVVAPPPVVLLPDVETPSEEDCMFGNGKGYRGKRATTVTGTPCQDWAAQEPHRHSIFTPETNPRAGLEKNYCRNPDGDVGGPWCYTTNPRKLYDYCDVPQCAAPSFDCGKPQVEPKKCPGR
As to the kind of experiment: Plasmin inhibition assay. Format: biochemical. The protocol:
as §1

For data set [8], the target named is T7, Rec. human matriptase (Homo sapiens, UniProt Q9Y5Y6).
T7 construct: purchased R&D Systems
T7 sequence (Q9Y5Y6 615-855 limits assumed): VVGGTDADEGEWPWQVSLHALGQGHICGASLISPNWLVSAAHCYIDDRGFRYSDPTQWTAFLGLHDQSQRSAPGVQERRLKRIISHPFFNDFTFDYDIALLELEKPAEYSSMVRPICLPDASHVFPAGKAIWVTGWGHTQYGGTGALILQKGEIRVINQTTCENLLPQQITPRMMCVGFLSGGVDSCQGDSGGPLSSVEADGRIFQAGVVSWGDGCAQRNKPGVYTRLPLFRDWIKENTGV
The data set is described as follows: Matriptase inhibition assay. Format: biochemical. The protocol:
as §1

Data set [9] can be described thus: Stability in human serum. Conditions: human serum, 37° C., up to 24 h. The protocol:
Briefly, peptides were incubated at a final concentration of 30 μM in human serum (human male AB serum, Sigma-Aldrich) at 37° C. for 0, 1, 12 and 24 h. The reaction was stopped at designated times, with the serum proteins being denatured by addition of two volumes of acetonitrile (v/v). The samples were then spun at 17,000 g for 10 min and the amount of peptide in the supernatant was quantified using analytical HPLC. The percentage of peptide remaining at 1, 12 and 24 h was calculated using the area of the serum-treated peptide peak from 0 h as 100%.

Data set [10] addresses T8, Human thrombin (Homo sapiens, UniProt P00734).
T8 construct: Human β-FXIIa was obtained from Molecular Innovations, together with human FXa, human FXIa, human α-thrombin, and human plasma kallikrein; purchased Molecular Innovations; host or cells: purified from human plasma
The data set is described as follows: Thrombin inhibition assay. Format: biochemical. The protocol:
as §1

Data set [11] deals with clotting via the intrinsic pathway. The data set is described as follows: Activated partial thromboplastin time (aPTT) assay in human plasma. The data set is classed as biochemical.
Source text: as §2, §3, §4

Data set [12] has as its target T9, Human trypsin (Homo sapiens, UniProt P07477).
T9 construct: purchased Sigma-Aldrich; host or cells: purified from human tissue
As to the kind of experiment: Trypsin competitive inhibition assay. The data set is classed as biochemical. The protocol:
as §1

Data set [13] addresses T10, Human FXIa (Homo sapiens, UniProt P03951).
T10 construct: Human β-FXIIa was obtained from Molecular Innovations, together with human FXa, human FXIa, human α-thrombin, and human plasma kallikrein; purchased Molecular Innovations; host or cells: purified from human plasma
As to the kind of experiment: FXIa inhibition assay. The data set is classed as biochemical. The protocol:
as §1

Bridge positions count the residues as written; N and C are the ends. Peptide text beside a SMILES is read from it.

T10 sequence (P03951 388-625 limits assumed): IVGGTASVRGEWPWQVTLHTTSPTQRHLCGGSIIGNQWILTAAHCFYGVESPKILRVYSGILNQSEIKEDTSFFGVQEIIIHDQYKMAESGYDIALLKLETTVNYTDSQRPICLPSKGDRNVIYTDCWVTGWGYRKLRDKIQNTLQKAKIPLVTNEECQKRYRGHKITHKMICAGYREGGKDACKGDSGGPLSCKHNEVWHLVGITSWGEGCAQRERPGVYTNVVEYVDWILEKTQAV
T10 sequence (P03951 19-387 partner limits assumed): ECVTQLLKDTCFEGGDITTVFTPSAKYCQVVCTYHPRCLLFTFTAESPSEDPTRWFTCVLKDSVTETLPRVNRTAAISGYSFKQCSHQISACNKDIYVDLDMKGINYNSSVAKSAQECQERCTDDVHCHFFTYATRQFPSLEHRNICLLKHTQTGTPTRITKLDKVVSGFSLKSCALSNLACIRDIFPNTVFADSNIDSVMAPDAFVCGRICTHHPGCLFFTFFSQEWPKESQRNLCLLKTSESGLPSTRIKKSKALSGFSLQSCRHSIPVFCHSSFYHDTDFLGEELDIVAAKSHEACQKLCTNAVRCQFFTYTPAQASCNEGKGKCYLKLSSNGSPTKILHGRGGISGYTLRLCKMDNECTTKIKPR
T5 sequence (P03952 391-638 limits assumed): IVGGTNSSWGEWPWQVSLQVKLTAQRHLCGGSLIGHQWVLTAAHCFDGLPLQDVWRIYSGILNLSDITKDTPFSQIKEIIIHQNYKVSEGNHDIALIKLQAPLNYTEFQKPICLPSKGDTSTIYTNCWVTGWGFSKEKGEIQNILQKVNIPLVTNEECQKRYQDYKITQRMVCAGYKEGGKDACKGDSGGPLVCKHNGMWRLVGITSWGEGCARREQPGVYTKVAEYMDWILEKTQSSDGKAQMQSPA
T5 sequence (P03952 20-390 partner limits assumed): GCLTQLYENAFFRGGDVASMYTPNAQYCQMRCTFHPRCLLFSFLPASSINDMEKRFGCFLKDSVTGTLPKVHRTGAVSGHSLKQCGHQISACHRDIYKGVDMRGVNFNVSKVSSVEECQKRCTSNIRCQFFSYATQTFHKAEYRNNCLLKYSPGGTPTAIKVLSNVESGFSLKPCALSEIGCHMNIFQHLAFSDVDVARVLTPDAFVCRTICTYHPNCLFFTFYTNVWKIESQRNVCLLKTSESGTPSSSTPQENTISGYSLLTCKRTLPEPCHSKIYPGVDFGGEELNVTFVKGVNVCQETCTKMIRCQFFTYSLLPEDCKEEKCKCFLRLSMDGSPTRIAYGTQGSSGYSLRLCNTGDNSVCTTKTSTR
T2 sequence (P00742 235-488 limits assumed): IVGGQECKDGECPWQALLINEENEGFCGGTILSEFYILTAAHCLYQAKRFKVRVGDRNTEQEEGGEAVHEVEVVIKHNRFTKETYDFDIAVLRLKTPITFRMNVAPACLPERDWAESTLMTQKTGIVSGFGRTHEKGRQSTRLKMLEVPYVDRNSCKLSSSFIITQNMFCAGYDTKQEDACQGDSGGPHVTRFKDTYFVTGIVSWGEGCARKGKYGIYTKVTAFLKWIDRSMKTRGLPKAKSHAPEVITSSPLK
T2 sequence (P00742 41-179 partner limits assumed): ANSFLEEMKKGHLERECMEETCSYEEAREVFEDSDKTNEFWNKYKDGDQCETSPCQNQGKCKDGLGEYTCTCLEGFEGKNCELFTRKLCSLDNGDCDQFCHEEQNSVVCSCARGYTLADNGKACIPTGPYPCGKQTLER
T1 sequence (P00748 373-615 limits assumed, other chains not shown): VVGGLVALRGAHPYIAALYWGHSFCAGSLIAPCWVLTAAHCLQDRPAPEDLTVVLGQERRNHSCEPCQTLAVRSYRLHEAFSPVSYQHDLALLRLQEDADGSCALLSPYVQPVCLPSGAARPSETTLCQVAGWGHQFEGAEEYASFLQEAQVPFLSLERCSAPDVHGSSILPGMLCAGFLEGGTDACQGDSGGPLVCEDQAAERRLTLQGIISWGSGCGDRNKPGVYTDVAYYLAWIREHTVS

`CC[C@H](C)[C@@H]1NC(=O)CNC(=O)CNC(=O)[C@H](CC(=O)O)NC(=O)[C@H](CO)NC(=O)CNC(=O)[C@H](CO)NC(=O)CNC(=O)[C@@H]2CSSC[C@@H]3NC(=O)[C@H](CC(=O)O)NC(=O)[C@H](CO)NC(=O)[C@H](CC(=O)O)NC(=O)[C@H](CCCNC(=N)N)NC(=O)[C@H](CCCNC(=N)N)NC(=O)[C@@H]4CSSC[C@H](NC(=O)[C@H]([C@@H](C)CC)NC(=O)[C@H](CSSC[C@H](NC1=O)C(=O)N1CCC[C@H]1C(=O)N[C@@H](CCCNC(=N)N)C(=O)N[C@@H]([C@@H](C)CC)C(=O)NCC(=O)N[C@@H](CCCNC(=N)N)C(=O)N[C@@H](CC(C)C)C(=O)N4)NC(=O)[C@H](C)NC(=O)CNC(=O)[C@@H]1CCCN1C3=O)C(=O)N[C@@H](CCCNC(=N)N)C(=O)NCC(=O)N[C@@H](CC(N)=O)C(=O)NCC(=O)N[C@@H](Cc1ccc(O)cc1)C(=O)N2` [cMCoTI-fxL1] (cyclo(ACICRGNGYCGSGSDGGICPRIGRLCRRDSDCPG); disulfide 2-19, 4-26, 10-32): the Ki (in general, a dissociation constant, usually derived from enzyme kinetics or from competition with a known ligand) in data set [1] is 0.69 nM; in [8], 2210 nM; in data set [12], 996 nM. The IC50 in [2], in data set [3], in data set [4], in data set [5], in data set [7] and in [10] was greater than 5 µM throughout. Moreover, in [13], the concentration for half-maximal inhibition (IC50) (in general, the concentration that inhibits the measured activity by half) is greater than 5 µM. In addition, the inhibition (as a rule, the change of the read-out against control, counted positive when it falls) at 5 µM in data set [2] (read-out: percent inhibition FXa) was 0%; in data set [3] (read-out: percent inhibition tPA), 1%; in [4] (read-out: percent inhibition uPA) it was 0%; in data set [5] (read-out: percent inhibition Plasma kallikrein) it was 0%; in data set [7] (read-out: percent inhibition Plasmin), 19%; in [10] (read-out: percent inhibition Thrombin), 1%. The inhibition at 5 µM in data set [13] (read-out: percent inhibition FXIa) was determined as 1%. Also, in data set [6], the “clotting time compared to control, PT assay” value was “No significant differences in clotting time compared to control assays”. Also, the “resistance to serum proteases (in words)” value in data set [9] is given as “highly resistant to serum proteases”. Also, the “EC2× (concentration required to double the clotting time)” value in [11] was determined as 500 nM.
